Here are results for 22 compounds from PubChem BioAssay (NCI).

Structures are written as SMILES.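 Where inhibition never reached the appropriate level, the endpoint shown equals the highest concentration tested. Otherwise, values were interpolated linearly from a five-concentration, 48-hour dose response in 96-well plates. GI50 is the concentration that inhibits growth by half. The concentration for full growth arrest is given as TGI.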 Where a SMILES comes first, the peptide text is derived from it. [ ]: non-standard residue; d: D form. The star is where a group is joined. mTyr = N[CH](Cc1cccc(O)c1)C(=O)O; Cbz = O=C(OCc1ccccc1)*; OBn = c1ccc(CO*)cc1

Test systems include NCI-H522 lung; SK-MEL-28 melanoma; NCI-H23 lung; NCI-H460 lung; HCT-15 colon; MOLT-4 leukemia; OVCAR-4 ovarian; HOP-62 NSCLC; RPMI-8226 leukemia; CCRF-CEM leukemia; HL-60(TB) leukemia.
Assay in all cases: NCI-60 cell line screen, 48 h

On to `Cc1cc(NCCCCCCCNc2cc(C)nc3cc([N+](=O)[O-])ccc23)c2ccc([N+](=O)[O-])cc2n1`, for which the TGI in the assay on NCI-H522 lung was 2.78 µM; with SK-MEL-28 melanoma, 10.1 µM; with NCI-H23 lung, over 24.9 µM; with NCI-H460 lung, 6.36 µM; in the assay on HCT-15 colon it was 9.8 µM; with MOLT-4 leukemia, 4.23 µM. Besides, the results for the TGI in the assay on OVCAR-4 ovarian and with HOP-62 NSCLC were 4.31 µM and 42 µM, respectively.

Turning to `CC(C)(C)c1cc(C2COC(c3cc(C(C)(C)C)c(O)c(C(C)(C)C)c3)CO2)cc(C(C)(C)C)c1O` (stereo not given), the TGI in the assay with NCI-H522 lung, in the assay with SK-MEL-28 melanoma, with NCI-H23 lung, with HCT-15 colon, in the assay with OVCAR-4 ovarian and with HOP-62 NSCLC was over 100 µM each time. The TGI in the assay with RPMI-8226 leukemia and with CCRF-CEM leukemia was over 100 µM throughout.

`Cc1ccc(N=Nc2c(O)c(C(=O)Nc3ccccc3)cc3ccccc23)c([N+](=O)[O-])c1`: the TGI in the assay on NCI-H522 lung, with SK-MEL-28 melanoma, in the assay with NCI-H23 lung, in the assay with HCT-15 colon, with MOLT-4 leukemia and in the assay on OVCAR-4 ovarian was over 100 µM each time. For the same compound, the TGI with HOP-62 NSCLC, with RPMI-8226 leukemia and in the assay on CCRF-CEM leukemia was over 100 µM each time.

With `O=C(N/N=C/c1cc(Cl)cc(Cl)c1O)c1ccccc1O`, the TGI with NCI-H522 lung is 3.18 µM; in the assay on SK-MEL-28 melanoma, 25.2 µM; in the assay with NCI-H460 lung, 18.8 µM; in the assay with HCT-15 colon it was 15.7 µM; with MOLT-4 leukemia, over 100 µM; in the assay with CCRF-CEM leukemia, over 100 µM. The figures for the GI50 in the assay on NCI-H23 lung and with MOLT-4 leukemia were 2.69 µM and 0.375 µM, respectively.

Consider `CC(C)(CC(O)C#N)/[N+]([O-])=[N+](\[O-])C(C)(C)CC(O)C#N` (stereo not given), for which the TGI in the assay with NCI-H522 lung is 35.4 µM; in the assay on SK-MEL-28 melanoma, over 100 µM; with NCI-H23 lung, 66.8 µM; with NCI-H460 lung, over 100 µM; in the assay with HCT-15 colon it was 38.5 µM; with MOLT-4 leukemia, 34.5 µM. Besides, the TGI with OVCAR-4 ovarian came to 81 µM; in the assay with HOP-62 NSCLC, 37.9 µM; with RPMI-8226 leukemia, 44.8 µM.

On to `COC(=O)C1=C(C)N2[C@H](C(=O)O)CO[C@@]2(C)[C@H](C(=O)OC)[C@H]1c1cccc([N+](=O)[O-])c1`, for which the TGI with NCI-H522 lung, in the assay with SK-MEL-28 melanoma, in the assay with NCI-H23 lung, with NCI-H460 lung, in the assay with HCT-15 colon and in the assay on MOLT-4 leukemia was over 100 µM each time. Further, the TGI in the assay on OVCAR-4 ovarian, in the assay with HOP-62 NSCLC, with RPMI-8226 leukemia and in the assay with CCRF-CEM leukemia was over 100 µM in each case.

In the case of `CC(NC(C)(C)C)C(=O)c1cccc(Cl)c1` (stereo not given), the TGI in the assay on NCI-H522 lung, in the assay on SK-MEL-28 melanoma, in the assay with NCI-H23 lung, in the assay with NCI-H460 lung, in the assay on MOLT-4 leukemia and in the assay on OVCAR-4 ovarian was over 100 µM in each case. Besides, the TGI with HOP-62 NSCLC, with RPMI-8226 leukemia and in the assay on CCRF-CEM leukemia was over 100 µM in each case.

Take `Cc1n[nH]c(=O)n1/N=C/c1ccc([N+](=O)[O-])o1`: the TGI was 28.3 µM with SK-MEL-28 melanoma; 32.4 µM in the assay with NCI-H23 lung; 49.4 µM in the assay with NCI-H460 lung; 26.2 µM in the assay with HCT-15 colon; over 100 µM with MOLT-4 leukemia; 32.3 µM in the assay on OVCAR-4 ovarian. For the same compound, the TGI is over 64.4 µM in the assay on HOP-62 NSCLC, over 58.3 µM with RPMI-8226 leukemia and over 100 µM with CCRF-CEM leukemia.

On to `CCOc1ccc(-n2nnc3c(N)nc(N)nc32)cc1`, for which the TGI in the assay with NCI-H522 lung, in the assay on SK-MEL-28 melanoma, in the assay with NCI-H23 lung, in the assay on NCI-H460 lung, with HCT-15 colon and in the assay on MOLT-4 leukemia was over 100 µM in each case. Further, the TGI with OVCAR-4 ovarian, in the assay on HOP-62 NSCLC, in the assay on RPMI-8226 leukemia and in the assay with CCRF-CEM leukemia was over 100 µM each time.

Take `Brc1ccc(-c2cn3ccncc3n2)cc1`: the TGI with NCI-H522 lung, in the assay on SK-MEL-28 melanoma, in the assay with NCI-H23 lung, in the assay on NCI-H460 lung, with HCT-15 colon and in the assay on MOLT-4 leukemia was over 100 µM throughout. Besides, the TGI in the assay with OVCAR-4 ovarian, with HOP-62 NSCLC, with RPMI-8226 leukemia and in the assay on CCRF-CEM leukemia was over 100 µM in each case.

`O=C(/C=C/c1csc(-c2ccccc2)n1)NCc1ccc(C(=O)NCc2ccccc2)cc1`: the TGI in the assay with NCI-H522 lung, in the assay on SK-MEL-28 melanoma, in the assay on NCI-H23 lung, in the assay on NCI-H460 lung, with HCT-15 colon and with MOLT-4 leukemia was over 100 µM throughout. For the same compound, the TGI with OVCAR-4 ovarian is over 100 µM; with HOP-62 NSCLC, 32.8 µM; with RPMI-8226 leukemia, over 100 µM; in the assay with CCRF-CEM leukemia, over 100 µM.

Consider `COc1ccc(-n2cnc3c(NC(CCSC)C(=O)O)ncnc32)cc1` (stereo not given), for which the TGI in the assay with NCI-H522 lung, with SK-MEL-28 melanoma, with NCI-H23 lung, in the assay with NCI-H460 lung, in the assay with HCT-15 colon and in the assay with MOLT-4 leukemia was over 100 µM each time. Further, the TGI in the assay with OVCAR-4 ovarian, in the assay with HOP-62 NSCLC, in the assay on RPMI-8226 leukemia and in the assay with CCRF-CEM leukemia was over 100 µM each time.

In the case of `O=c1onc2c3ccccc3ncn12`, the TGI with NCI-H522 lung, with SK-MEL-28 melanoma, in the assay with NCI-H23 lung, in the assay with HCT-15 colon, in the assay with MOLT-4 leukemia and in the assay with OVCAR-4 ovarian was over 100 µM in each case. The TGI with HOP-62 NSCLC, with RPMI-8226 leukemia and with CCRF-CEM leukemia was over 100 µM each time.

As for `COC(=O)CC1NC(=O)C1C1(C)OCCO1` (stereo not given), the TGI in the assay with SK-MEL-28 melanoma, with NCI-H23 lung, with NCI-H460 lung, in the assay with HCT-15 colon, in the assay on OVCAR-4 ovarian and in the assay on HL-60(TB) leukemia was over 100 µM in each case. In addition, the TGI in the assay with HOP-62 NSCLC and in the assay on RPMI-8226 leukemia was over 100 µM each time.

`O=C(CSC1=NCCN1)Nc1ccccc1`: the TGI in the assay with NCI-H522 lung was 38.7 µM; with SK-MEL-28 melanoma, 62.6 µM; in the assay with NCI-H23 lung, over 100 µM; in the assay with NCI-H460 lung it was over 100 µM; with HCT-15 colon, over 100 µM; in the assay on MOLT-4 leukemia it was over 100 µM. For the same compound, the TGI in the assay on OVCAR-4 ovarian, in the assay with HOP-62 NSCLC, in the assay on RPMI-8226 leukemia and in the assay with CCRF-CEM leukemia was over 100 µM in each case.

As for `COc1ccc(N=C2C(=Nc3ccc(OC)cc3)N(c3ccccc3)C(=S)N2N=C=C2Sc3ccccc3N2C)cc1`, the TGI with NCI-H522 lung, in the assay with SK-MEL-28 melanoma, in the assay with NCI-H23 lung, with NCI-H460 lung, with HCT-15 colon and in the assay with MOLT-4 leukemia was over 100 µM in each case. The TGI with HOP-62 NSCLC and with RPMI-8226 leukemia was over 100 µM in each case.

On to `Nc1ccc(C(=O)NN2C(=O)C(Cl)C2c2ccccc2)cc1` (stereo not given), for which the TGI with NCI-H522 lung, in the assay with SK-MEL-28 melanoma, in the assay with NCI-H23 lung, with NCI-H460 lung, with HCT-15 colon and in the assay on MOLT-4 leukemia was over 100 µM each time. Further, the TGI in the assay with OVCAR-4 ovarian, with HOP-62 NSCLC, with RPMI-8226 leukemia and in the assay on CCRF-CEM leukemia was over 100 µM throughout.

`CCCc1ccc(NCc2cc(OC)c(OC)c(OC)c2)cc1`: in the assay with NCI-H522 lung, the GI50 is 17.3 µM. Moreover, the TGI was 34.3 µM in the assay with NCI-H522 lung; 73.9 µM with SK-MEL-28 melanoma; 69.2 µM with NCI-H23 lung; over 100 µM in the assay on NCI-H460 lung; 32.1 µM with HCT-15 colon; 66.2 µM in the assay with MOLT-4 leukemia. Further, the TGI in the assay with OVCAR-4 ovarian is over 100 µM; in the assay on HOP-62 NSCLC, over 100 µM; in the assay on RPMI-8226 leukemia, 37 µM; with CCRF-CEM leukemia it was 49 µM.

For the compound `COC(=O)C(Cc1cccc(O)c1)NC(=O)C(CC(=O)OCc1ccccc1)NC(=O)OCc1ccccc1` (stereo not given) (Cbz-Asp(OBn)-[mTyr]-OMe; configuration not given here), the TGI with SK-MEL-28 melanoma is over 100 µM; in the assay with NCI-H23 lung, over 100 µM; in the assay on NCI-H460 lung, 35.6 µM; in the assay on HCT-15 colon, over 100 µM; with MOLT-4 leukemia, over 100 µM; in the assay with HL-60(TB) leukemia it was over 100 µM. In addition, the TGI in the assay with HOP-62 NSCLC and with RPMI-8226 leukemia was over 100 µM each time.

Turning to `O=C(O)CNC(=O)c1c2ccccc2nc2ccccc12`, the TGI in the assay on NCI-H522 lung, in the assay on SK-MEL-28 melanoma, in the assay on NCI-H23 lung, in the assay on NCI-H460 lung, with HCT-15 colon and in the assay with MOLT-4 leukemia was over 100 µM throughout. Further, the TGI with OVCAR-4 ovarian, with HOP-62 NSCLC, in the assay on RPMI-8226 leukemia and with CCRF-CEM leukemia was over 100 µM each time.

With `COc1ccc2c(c1)CCN1CCc3cc(OC)c(OC)cc3CC21` (stereo not given), the TGI in the assay on NCI-H522 lung is over 10 µM; in the assay with SK-MEL-28 melanoma, over 100 µM; in the assay with NCI-H23 lung it was over 100 µM; in the assay with HCT-15 colon it was over 100 µM; with MOLT-4 leukemia it was over 100 µM; in the assay on OVCAR-4 ovarian it was over 100 µM. The TGI in the assay on RPMI-8226 leukemia and in the assay with CCRF-CEM leukemia was over 100 µM in each case.

For the compound `COc1cccc(NC(=O)C(C#N)=C(SC)SC)c1`, the TGI with NCI-H522 lung, with SK-MEL-28 melanoma, with NCI-H460 lung, in the assay on HCT-15 colon, with MOLT-4 leukemia and with OVCAR-4 ovarian was over 100 µM in each case. Also, the TGI in the assay with HOP-62 NSCLC and with CCRF-CEM leukemia was over 100 µM in each case.
